Experimental data published in ChEMBL document CHEMBL1201862, “PubChem BioAssay data set” (2004).
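Test compounds were applied to cells in 96-well plates for 48 hours at 5 doses. Abbreviation: GI50, concentration required for 50% inhibition of growth.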 Activity calls are given as the source filed them. Cut-off read from the data, not from the text of the source: active = GI50 up to about 1.1 µM and inactive = higher.

Key:
Experiment in all cases: inhibition of tumour cell growth, NCI panel, 48 h
[1] = system: 786-0
[2] = system: A498
[3] = system: A549
[4] = system: ACHN
[5] = system: CCRF-CEM
[6] = system: DU-145
[7] = system: HCT-116
[8] = system: K562
[9] = system: MDA-MB-435
[10] = system: MDA-N
[11] = system: Malme-3M
[12] = system: NCI/ADR-RES
[13] = system: OVCAR-8
[14] = system: RXF 393
[15] = system: SK-MEL-28
[16] = system: SK-MEL-5
[17] = system: SK-OV-3
[18] = system: SN12C
[19] = system: SNB-75
[20] = system: UACC-257

SMILES	GI50 [1]	GI50 [2]	GI50 [3]	GI50 [4]	GI50 [5]	GI50 [6]	GI50 [7]	GI50 [8]	GI50 [9]	GI50 [10]	GI50 [11]	GI50 [12]	GI50 [13]	GI50 [14]	GI50 [15]	GI50 [16]	GI50 [17]	GI50 [18]	GI50 [19]	GI50 [20]
CCC(c1ccc(N(C)C)cc1)C1NC(=S)NC1=O (stereo not drawn)	> 100 µM (inactive)	50.6 µM (inactive)	> 100 µM (inactive)	> 100 µM (inactive)	48.9 µM (inactive)	> 100 µM (inactive)	47 µM (inactive)	20.1 µM (inactive)	34.4 µM (inactive)	59.7 µM (inactive)	> 100 µM (inactive)	> 100 µM (inactive)	> 100 µM (inactive)	> 100 µM (inactive)	> 100 µM (inactive)	37.8 µM (inactive)	> 100 µM (inactive)	> 100 µM (inactive)	85.9 µM (inactive)	> 100 µM (inactive)
CC(C)C(=O)CP(=O)(O)O	> 100 µM (inactive)	> 100 µM (inactive)	> 100 µM (inactive)	> 100 µM (inactive)	> 100 µM (inactive)	> 100 µM (inactive)	> 100 µM (inactive)	> 100 µM (inactive)	> 100 µM (inactive)	> 100 µM (inactive)	> 100 µM (inactive)	> 100 µM (inactive)	> 100 µM (inactive)	> 100 µM (inactive)	> 100 µM (inactive)	> 100 µM (inactive)	> 100 µM (inactive)	> 100 µM (inactive)	> 100 µM (inactive)	> 100 µM (inactive)
CCc1cccc(C(C)C)c1NC(=O)C(=O)C1C(=O)Nc2ccccc2[S+]1[O-] (stereo not drawn)	> 100 µM (inactive)	> 100 µM (inactive)	> 100 µM (inactive)	> 100 µM (inactive)	> 100 µM (inactive)	> 100 µM (inactive)	> 100 µM (inactive)	–	> 100 µM (inactive)	> 100 µM (inactive)	> 100 µM (inactive)	> 100 µM (inactive)	> 100 µM (inactive)	56.1 µM (inactive)	> 100 µM (inactive)	> 100 µM (inactive)	> 100 µM (inactive)	> 100 µM (inactive)	> 100 µM (inactive)	> 100 µM (inactive)
O=C(/C=C/c1ccc2c(c1)OCO2)c1ccc(O)cc1	1.63 µM (inactive)	23.4 µM (inactive)	17.4 µM (inactive)	20.2 µM (inactive)	8.07 µM (inactive)	16.5 µM (inactive)	13.4 µM (inactive)	5.58 µM (inactive)	14.8 µM (inactive)	10.8 µM (inactive)	15.3 µM (inactive)	1.76 µM (inactive)	1.64 µM (inactive)	15.6 µM (inactive)	19.3 µM (inactive)	15.6 µM (inactive)	16.5 µM (inactive)	15.5 µM (inactive)	25.1 µM (inactive)	15.3 µM (inactive)
O=C[C@@H](CO)O[C@H](C=O)c1c[nH]c(=O)[nH]c1=O	128 µM (inactive)	119 µM (inactive)	192 µM (inactive)	81.1 µM (inactive)	34.9 µM (inactive)	100 µM (inactive)	84.5 µM (inactive)	66.1 µM (inactive)	49.4 µM (inactive)	70.8 µM (inactive)	88.7 µM (inactive)	103 µM (inactive)	66.1 µM (inactive)	54.8 µM (inactive)	85.7 µM (inactive)	83.9 µM (inactive)	112 µM (inactive)	83 µM (inactive)	182 µM (inactive)	104 µM (inactive)
CSC(Cc1ccc2c(c1)Sc1ccccc1O2)=[N+]1CCOCC1	88.9 µM (inactive)	46.5 µM (inactive)	63.8 µM (inactive)	58.3 µM (inactive)	–	> 100 µM (inactive)	41.4 µM (inactive)	79.6 µM (inactive)	33 µM (inactive)	54.5 µM (inactive)	26.4 µM (inactive)	56.8 µM (inactive)	52.6 µM (inactive)	37.6 µM (inactive)	80.7 µM (inactive)	–	> 100 µM (inactive)	> 100 µM (inactive)	32.4 µM (inactive)	43 µM (inactive)
C=Cc1nc(C#N)c(N)o1	> 100 µM (inactive)	> 100 µM (inactive)	> 100 µM (inactive)	–	> 100 µM (inactive)	> 100 µM (inactive)	> 100 µM (inactive)	> 100 µM (inactive)	> 100 µM (inactive)	> 100 µM (inactive)	> 100 µM (inactive)	> 100 µM (inactive)	> 100 µM (inactive)	> 100 µM (inactive)	> 100 µM (inactive)	> 100 µM (inactive)	> 100 µM (inactive)	> 100 µM (inactive)	> 100 µM (inactive)	> 100 µM (inactive)
Cc1ccc(C)c(COCCOCn2c(=O)[nH]c(=O)c3cc(Br)ccc32)c1	29.4 µM (inactive)	> 100 µM (inactive)	> 100 µM (inactive)	> 100 µM (inactive)	> 100 µM (inactive)	90.8 µM (inactive)	> 100 µM (inactive)	> 100 µM (inactive)	> 100 µM (inactive)	> 100 µM (inactive)	71.8 µM (inactive)	> 100 µM (inactive)	94.2 µM (inactive)	> 100 µM (inactive)	39.5 µM (inactive)	–	> 100 µM (inactive)	> 100 µM (inactive)	46.6 µM (inactive)	72.1 µM (inactive)
Cc1cc(O)c2c(c1O)C(=O)c1c(O)ccc(O)c1C2=O [Cynodontin]	82 µM (inactive)	> 100 µM (inactive)	> 100 µM (inactive)	> 100 µM (inactive)	> 100 µM (inactive)	> 100 µM (inactive)	> 100 µM (inactive)	> 100 µM (inactive)	> 100 µM (inactive)	> 100 µM (inactive)	> 100 µM (inactive)	> 100 µM (inactive)	> 100 µM (inactive)	> 100 µM (inactive)	–	> 100 µM (inactive)	> 100 µM (inactive)	> 100 µM (inactive)	52.5 µM (inactive)	> 100 µM (inactive)
CN(/N=C/c1cccc2cccnc12)c1ccc(Cl)cc1[N+](=O)[O-]	> 100 µM (inactive)	> 100 µM (inactive)	> 100 µM (inactive)	> 100 µM (inactive)	> 100 µM (inactive)	> 100 µM (inactive)	> 100 µM (inactive)	> 100 µM (inactive)	> 100 µM (inactive)	> 100 µM (inactive)	> 100 µM (inactive)	87.1 µM (inactive)	> 100 µM (inactive)	> 100 µM (inactive)	–	> 100 µM (inactive)	> 100 µM (inactive)	> 100 µM (inactive)	> 100 µM (inactive)	> 100 µM (inactive)
CC(C)[Si](OC1=CCCCCC12C(=O)N(C)c1ccccc12)(C(C)C)C(C)C (stereo not drawn)	17.7 µM (inactive)	15.8 µM (inactive)	19.8 µM (inactive)	16.8 µM (inactive)	17.1 µM (inactive)	15 µM (inactive)	–	24.1 µM (inactive)	25.1 µM (inactive)	28.4 µM (inactive)	20.2 µM (inactive)	18.8 µM (inactive)	21 µM (inactive)	8.77 µM (inactive)	23.6 µM (inactive)	17.5 µM (inactive)	20.5 µM (inactive)	–	13.5 µM (inactive)	14.9 µM (inactive)
CSc1nc2c(c(=O)n1C)N=C(c1ccccc1)[C@H](C(CC(=O)c1ccccc1)c1ccccc1)C(c1ccccc1)N2 (stereo partly drawn)	> 100 µM (inactive)	> 100 µM (inactive)	31.8 µM (inactive)	> 100 µM (inactive)	44.8 µM (inactive)	> 100 µM (inactive)	32 µM (inactive)	54.5 µM (inactive)	> 100 µM (inactive)	> 100 µM (inactive)	> 100 µM (inactive)	76.6 µM (inactive)	> 100 µM (inactive)	65.6 µM (inactive)	> 100 µM (inactive)	> 100 µM (inactive)	–	> 100 µM (inactive)	3.12 µM (inactive)	> 100 µM (inactive)
O=C(Nc1nncs1)NS(=O)(=O)n1cnc2ccccc21	> 100 µM (inactive)	> 100 µM (inactive)	> 100 µM (inactive)	> 100 µM (inactive)	> 100 µM (inactive)	> 100 µM (inactive)	> 100 µM (inactive)	–	> 100 µM (inactive)	> 100 µM (inactive)	> 100 µM (inactive)	> 100 µM (inactive)	> 100 µM (inactive)	> 100 µM (inactive)	> 100 µM (inactive)	> 100 µM (inactive)	> 100 µM (inactive)	> 100 µM (inactive)	> 100 µM (inactive)	> 100 µM (inactive)
Nc1ccc(Oc2ccc(C3(c4ccc(Oc5ccc(N)cc5)cc4)C4CC5CC(C4)CC3C5)cc2)cc1	4.57 µM (inactive)	2.91 µM (inactive)	6.08 µM (inactive)	7.8 µM (inactive)	3.03 µM (inactive)	6.64 µM (inactive)	0.782 µM (active)	3.89 µM (inactive)	8.05 µM (inactive)	6.32 µM (inactive)	23.7 µM (inactive)	15.8 µM (inactive)	9.18 µM (inactive)	6.3 µM (inactive)	16.5 µM (inactive)	14.4 µM (inactive)	–	6.28 µM (inactive)	54 µM (inactive)	6.67 µM (inactive)
